Assay results: publication PMC2267855, “Site-directed mutagenesis of Arginine282 suggests how protons and peptides are co-transported by rabbit PepT1” (The International Journal of Biochemistry & Cell Biology, 2008)
Positions count from the first letter of the chain named. Where a SMILES comes first, the peptide text is derived from it.

Legend:
Type in all cases: cell-based, rabbit
wild-type PepT1 = molecular target: T1, wild-type PepT1 (Oryctolagus cuniculus, UniProt P36836); test: Accumulation of [3H]-D-Phe-L-Gln above the extracellular concentration by oocytes expressing wild-type PepT1
T1 construct: expressed in transfected cells; host or cells: Xenopus laevis oocytes injected with cRNA
T1 sequence (P36836 1-707): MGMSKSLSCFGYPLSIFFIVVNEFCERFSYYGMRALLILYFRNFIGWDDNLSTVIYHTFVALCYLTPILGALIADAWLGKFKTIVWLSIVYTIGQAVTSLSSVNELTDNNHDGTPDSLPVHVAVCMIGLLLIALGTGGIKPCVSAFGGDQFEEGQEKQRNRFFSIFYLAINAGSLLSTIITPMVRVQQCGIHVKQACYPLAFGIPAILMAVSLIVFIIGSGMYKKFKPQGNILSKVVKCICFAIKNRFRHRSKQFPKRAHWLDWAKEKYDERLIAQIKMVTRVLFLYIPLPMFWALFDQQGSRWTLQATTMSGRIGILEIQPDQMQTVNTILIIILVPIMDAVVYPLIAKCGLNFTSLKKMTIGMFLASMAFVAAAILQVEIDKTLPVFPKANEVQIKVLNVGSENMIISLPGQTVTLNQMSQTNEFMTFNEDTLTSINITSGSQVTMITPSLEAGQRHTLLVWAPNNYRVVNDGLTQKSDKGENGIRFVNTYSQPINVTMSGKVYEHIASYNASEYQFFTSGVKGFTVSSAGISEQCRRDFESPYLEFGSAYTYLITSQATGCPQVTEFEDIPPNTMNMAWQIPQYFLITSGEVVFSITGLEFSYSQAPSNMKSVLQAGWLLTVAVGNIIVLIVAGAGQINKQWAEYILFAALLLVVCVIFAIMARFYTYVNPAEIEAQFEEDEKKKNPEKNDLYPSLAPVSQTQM
Procedure: (§1) Zero-trans uptake of [^3H]-D-Phe-L-Gln (17.4 Ci/mmole, custom synthesised, Cambridge Research Biochemicals, Stockton-on-Tees, UK) was performed as previously described ([Meredith, 2004]). Briefly, 5 oocytes were incubated in 100 μl of uptake medium (95 mM NaCl, 2 mM KCl, 1 mM CaCl2, 0.42 mM MgCl2, 10 mM Tris/Hepes pH 7.4 or Tris/Mes pH 5.5) with tracer (0.4 μM) [^3H]-D-Phe-L-Gln. After incubation, the oocytes were washed sequentially five times in 1 ml of ice-cold 120 mM NaCl solution, lysed individually with 100 μl 2% (w/v) SDS and liquid scintillation counted. As a control non-injected oocytes were also incubated in uptake medium with [^3H]-D-Phe-L-Gln as above.

R282E-PepT1 = molecular target: T2, R282E-PepT1 (Oryctolagus cuniculus, UniProt P36836, R282E); test: Accumulation of [3H]-D-Phe-L-Gln above the extracellular concentration by oocytes expressing R282E-PepT1; conditions: R282E-PepT1, pHout 7.4, 24 h incubation
T2 construct: expressed in transfected cells; host or cells: Xenopus laevis oocytes injected with cRNA
T2 sequence (P36836 1-707 R282E): T1 sequence (P36836 1-707) with R282E
Procedure: as §1

R282A-PepT1 = molecular target: T3, R282A-PepT1 (Oryctolagus cuniculus, UniProt P36836, R282A); test: Inhibition of [3H]-D-Phe-L-Gln uptake into Xenopus oocytes expressing R282A-PepT1 (competition, Ki); conditions: pHout 5.5, 0.4 μM [3H]-D-Phe-L-Gln
T3 construct: expressed in transfected cells; host or cells: Xenopus laevis oocytes injected with cRNA
T3 sequence (P36836 1-707 R282A): T1 sequence (P36836 1-707) with R282A
Procedure: as §1
The affinity of wild-type and mutant PepT1 were assessed by competition studies with 0.4 μM [^3H]-D-Phe-L-Gln and Gly-L-Gln present in the uptake medium in concentrations from 0 to 2 mM using the protocol above, and the Ki calculated using the method of [Deves and Boyd (1989)].

| accumulation above extracellular concentration (wild-type PepT1; third comparison, printed as wild-type PepT1 at pHout 7.4, 8 h incubation) | accumulation above extracellular concentration (wild-type PepT1; third comparison, printed as wild-type PepT1 at pHout 7.4, 24 h incubation) | accumulation above extracellular concentration (wild-type PepT1; wild-type PepT1, pHout 5.5, 8 h incubation) | accumulation above extracellular concentration (wild-type PepT1; wild-type PepT1, pHout 5.5, 24 h incubation) | accumulation above extracellular concentration (wild-type PepT1; wild-type PepT1, pHout 7.4, 8 h incubation) | accumulation above extracellular concentration (wild-type PepT1; wild-type PepT1, pHout 7.4, 24 h incubation) | accumulation above extracellular concentration (R282E-PepT1) | Ki (R282A-PepT1) | Structure (SMILES) |
| --- | --- | --- | --- | --- | --- | --- | --- | --- |
| 1.0 ± 0.4 | 1.5 ± 0.3 | 8.0 ± 1.4 | 8.3 ± 1.0 | 2.5 ± 0.5 | 3.1 ± 0.5 -fold | 2.3 ± 0.4 -fold |  | NC(=O)CC[C@H](NC(=O)[C@H](N)Cc1ccccc1)C(=O)O [D-Phe-L-Gln] |
|  |  |  |  |  |  |  | 300 ± 170 µM | NCC(=O)N[C@@H](CCC(N)=O)C(=O)O [Gly-L-Gln] (H-Gly-Gln-OH) |
